Results published in patent publication US20230255990A1, “USE OF 2'-FL FOR TREATMENT OF SYMPTOMS ASSOCIATED WITH AUTISM SPECTRUM DISORDER” (Glycosyn LLC, priority 2020, published 2023).

How the values were obtained:
[1] = system: mouse model for ASD; assay: Sociality (aggregons) in mouse model for ASD, pups of antibiotic-treated mothers; type: in vivo
Description: ASD is a neurobehavioral disorder in which affected individuals have persistent deficits in social communication and interaction (symptom of ASD). To address the impact of 2′-FL administration on social communication and interaction, a mouse model for ASD was designed and experiments conducted to study ASD-associated neurobehavioral disorders such as interpersonal sociality. A depiction of the system used for scoring contact behavior was adapted from known method, e.g., that described by Harshaw, C. et al. (2014). “Sex Differences in Thermogenesis Structure Behavior and Contact within Huddles of Infant Mice.” Plos One, 9(1), 1-15 and Sokoloff G, Blumberg M S. Competition and cooperation among huddling infant rats. Dev Psychobiol. 2001 September; 39(2):65-75. doi: 10.1002/dev.1030, Erratum in: Dev Psychobiol 2001 November; 39(3):229.
The question to be addressed was whether providing 2′-FL rescues the normal sociality of mouse pups whose social interaction was perturbed. Perturbation of behavior was achieved by antibiotic treatment of their mothers using a method previously developed and validated. Sociality is measured by objective measurement of “aggregons” which means the (a) huddling of dams and pups or (b) pups only in groups.
The mouse experiment involved 22 mother-pup litters including a control group (n=7 litters with 28 pups), an antibiotic treated group (7 litters with 28 pups), and a 2′-FL treated group (8 litters with 32 pups).
Mothers were treated with an antibiotic cocktail, starting from gestational day 12; delivery was on day 20. Antibiotic use was continued for mothers postpartum. Treatment of 2′-FL was given to mothers and pups through their water intake. Sociality was measured at night, as mice are nocturnal animals, using the mean number of aggregons (social groupings). Aggregons could consist of individual mice only if they were not huddled with other mice, or they could be a group defined as either one or more pups with the dam, or two or more pups without the dam. The outcome of the experiment was measured on postpartum day 7. […]

[2] = system: gastrointestinal mitochondrial function; conditions: murine model; pathways of electron transport chain, oxidative phosphorylation, protein targeting to the mitochondrion; cited from earlier work
[3] = system: IL-10 and inflammatory cytokine expression; conditions: 2′-FL alone or as part of an HMO mixture, pre-clinical studies; cited from earlier work
[4] = system: bifidobacteria; conditions: alone or in combination with other HMOs; cited from earlier work

With 2′-fucosyllactose [2′-FL] the “pup-only aggregons, pattern by experimental group” value ([1]; night 7, p<0.05, 2′-FL group follows the pattern of the controls) was “This pattern in the aggregons by experimental group was also observed”, the “marginal mean of aggregons including dams” value ([1]; night 7 postpartum, 2′-FL via water intake to mothers and pups, antibiotic-treated group 41, controls 26, lower number = more sociality) was 25 aggregons and the “sociality of antibiotic-treated mice (dams and their offspring)” value ([1]; postpartum day 7) was “normal sociality was rescued”. For the same substance, the gastrointestinal mitochondrial function [2] was “increase gastrointestinal mitochondrial function”, the IL-10 [3] was “increase IL-10” and the inflammatory cytokine expression [3] was “decrease inflammatory cytokine expression”. For the same substance, the “growth and relative abundance of bifidobacteria” value [4] was “increases the growth and relative abundance of bifidobacteria”.
